Values of other authors as cited in EP0097942A1, “Antiallergic pyrazine-bis(2-oxoglycine) compounds” (THE DOW CHEMICAL COMPANY, priority 1982, dated 1984).
Read-outs that look alike come from different tables or passages of the source.

Test system: PCA reactions
Settings: general statement on reference drug

In the case of O=C(O)c1cc(=O)c2c(OCC(O)COc3cccc4oc(C(=O)O)cc(=O)c34)cccc2o1 [Disodium cromoglycate], the “activity in PCA test” value (administered i.p.) is given as “active” and the “activity in PCA test” value (administered orally) is given as “not orally”.
